The subject of experiment [1] is mesenteric arteries of mice with chronic heart failure. Nature of the experiment: Flow-mediated dilatation of isolated mesenteric arteries from mice with chronic heart failure (coronary artery occlusion model). The experiment is classed as cell-based, C57BL6 mice. To be noted: CHF mouse arteries, in-vitro incubation 30 min, preconstriction by phenylephrine. An excerpt: Experimentally, flow-induced release of NO in small peripheral arteries (i.e. arteries that contribute to the increased resistance in heart failure) may be assessed in vitro in isolated perfused, pressurized arteries such as small (<300 μm diameter) mesenteric or hindquarter arteries.
Chronic heart failure is induced in C57BL6 mice (n=12) by coronary ligation according to the model developed in rats by Varin et al,1999, Circulation, 99, 2951-2957.
Mice are anesthetized, ventilated and a thoracotomy (incision of the pleural cavity) is performed. The left main coronary artery is ligated close to its origin. This procedure leads to the development of an infarct involving around 40% of the left ventricle. Post-infarction mortality in this mouse model is around 40-50%.
The development of heart failure is assessed by echocardiography in the closed chest state 7 days and 2 months after coronary ligation. Sham-operated (normal) mice are subjected to the same protocol except that the artery is not be ligated. […]
(§1) Flow-mediated vasodilatation (FMD), i.e. changes in vessel diameter in response to stepwise increases in intra-luminal flow (0-200 μl/min) is evaluated after preconstriction by phenylephrine (incubated 2min at 10^-5 M) after a contraction plateau is reached, at baseline and after incubation with a compound of the invention: […]

Experiment [2] has as its system mesenteric arteries of normal mice. Nature of the experiment: Flow-mediated dilatation of isolated mesenteric arteries from normal (sham-operated) mice. The format is cell-based, C57BL6 mice. To be noted: 10^-5 M, compared with the roughly abolished response in CHF arteries (FIG. 1). The method, then: The flow-mediated dilatation response in a normal mouse (open circles) is compared to the flow-mediated dilatation response of mesenteric arteries in either normal mouse subjected to an inhibitor of NO synthesis (left, black circles) or in a mouse wherein chronic heart failure (CHF) has been induced as described in Example 1 (right, black circles).
The development of heart failure is assessed by echocardiography in the closed chest state 7 days and 2 months after coronary ligation. Sham-operated (normal) mice are subjected to the same protocol except that the artery is not be ligated. Six mice are present in each group and mice that survived myocardial infarction are further used in the study.
After two months, the mice is anesthetized and subjected to laparotomy (incision into the abdominal cavity).
A portion of the mesenteric artery (diameter 250-350 μm) is carefully isolated under a dissection microscope, and a 1.5to 2.0-mm length segment is cannulated on both ends, transferred to an arteriograph (Living Systems Instrumentation) and pressurized to 60 mm Hg.
as §1

In the case of `CCCCCCc1ccc(C#Cc2ccc(CN(Cc3ccc(C(F)(F)F)cc3)C(=O)C(=O)O)cc2)cc1` [Compound 1, {{4-[(4-hexylphenyl)ethynyl]benzyl}[4-(trifluoromethyl)benzyl]amino}(oxo)acetic acid], the “flow-mediated dilatation (% dilatation) restoration” value in experiment [1] (10^-5 M in Krebs buffer, flow 0-200 μl/min (FIG. 2 left)) is “restored to the normal level”; in experiment [1] (10^-6 M in Krebs buffer, flow 0-200 μl/min (FIG. 2 right)), “restored to the normal level”.

`N=C(NCCC[C@H](N)C(=O)O)N[N+](=O)[O-]` [NG-nitro-L-arginine]: in experiment [2], the “inhibition of the flow-mediated dilatation response” value is given as “inhibition of the dilatation response is similar”.

For the origin of these results see patent US20070185118A1, “Use of methylene amide derivatives in cardiovascular disorders” (APPLIED RESEARCH SYSTEMS ARS HOLDING N.V., priority 2004, published 2007).
